Here are results for 34 molecules from patent US8178522B2, “Thiazoles” (Hoffmann-La Roche Inc., priority 2009, dated 2012).

This assay has as its target T1, GABA A α5 (α5β3γ2) (Homo sapiens, UniProt P18507+P31644).
T1 construct: expressed in transfected cells; host or cells: HEK293, transiently transfected; membrane preparation
Description: [3H]flumazenil competition binding, human GABA A α5 receptor. In short, it runs like this:
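Competition with [3H]flumazenil at membranes from HEK293 cells transiently expressing human α5β3γ2, in Krebs-tris buffer pH 7.5. Equilibrium 1 hour at 4° C, filtration with ice-cold 50 mM Tris wash, scintillation counting. Ki values are means of two determinations.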

[1] abbreviates: human receptor α5β3γ2 transiently transfected in HEK293 cells, competition for [3H]flumazenil 0.5 nM, 1 hour at 4° C., means of two determinations, read-out: hKi GABA A α5.

Like-named read-outs stand apart in the source and are kept apart here.

As for `CCCCc1noc(C)c1CCc1nc(C)c(C(=O)NC(C)C)s1` [Example 48, 2-[2-(3-Butyl-5-methyl-isoxazol-4-yl)-ethyl]-4-methyl-thiazole-5-carboxylic acid iso-propylamide], the Ki under setting [1] worked out at 23.1 nM.

`CCCCc1noc(C)c1COc1ncc(C(=O)NCCO)s1` [Example 134, 2-(3-Butyl-5-methyl-isoxazol-4-ylmethoxy)-thiazole-5-carboxylic acid (2-hydroxy-ethyl)-amide]: the Ki under setting [1] is 21.5 nM.

Take `Cc1nc(/C=C/c2c(-c3ccccc3)noc2C)sc1C(=O)NCCO` [Example 70, 4-Methyl-2-[(E)-2-(5-methyl-3-phenyl-isoxazol-4-yl)-vinyl]-thiazole-5-carboxylic acid (2-hydroxy-ethyl)-amide]: the Ki under setting [1] turned out to be 0.5 nM.

As for `Cc1nc(CCc2c(-c3ccccn3)noc2C)sc1C(=O)NCCO` [Example 14, 4-Methyl-2-[2-(5-methyl-3-pyridin-2-yl-isoxazol-4-yl)-ethyl]-thiazole-5-carboxylic acid (2-hydroxy-ethyl)-amide], the Ki under setting [1] is 14.1 nM.

With `CNC(=O)c1sc(CCc2c(-c3ccc(F)cn3)noc2C)nc1C` [Example 39, 2-{2-[3-(5-Fluoro-pyridin-2-yl)-5-methyl-isoxazol-4-yl]-ethyl}-4-methyl-thiazole-5-carboxylic acid methylamide], under setting [1], the Ki was found to be 25.3 nM.

In the case of `Cc1nc(CCc2c(-c3ccc(F)cn3)noc2C)sc1C(=O)NCCO` [Example 36, 2-{2-[3-(5-Fluoro-pyridin-2-yl)-5-methyl-isoxazol-4-yl]-ethyl}-4-methyl-thiazole-5-carboxylic acid (2-hydroxy-ethyl)-amide], the Ki under setting [1] stood at 14 nM.

Consider `CCCCc1noc(C)c1/C=C/c1nc(C)c(C(=O)N[C@H](C)C(F)(F)F)s1` [Example 107, 2-[(E)-2-(3-Butyl-5-methyl-isoxazol-4-yl)-vinyl]-4-methyl-thiazole-5-carboxylic acid ((R)-2,2,2-trifluoro-1-methyl-ethyl)-amide], for which, under setting [1], the Ki is 2.6 nM.

On to `Cc1onc(-c2ccc(F)cn2)c1CCc1ncc(C(=O)NCCO)s1` [Example 45, 2-{2-[3-(5-Fluoro-pyridin-2-yl)-5-methyl-isoxazol-4-yl]-ethyl}-thiazole-5-carboxylic acid (2-hydroxy-ethyl)-amide], for which, under setting [1], the Ki came to 26.3 nM.

As for `Cc1nc(CCc2c(-c3ccc(F)cn3)noc2C)sc1C(=O)NC(C)C` [Example 32, 2-{2-[3-(5-Fluoro-pyridin-2-yl)-5-methyl-isoxazol-4-yl]-ethyl}-4-methyl-thiazole-5-carboxylic acid isopropylamide], the Ki under setting [1] was determined as 7 nM.

With `CCCCc1noc(C)c1/C=C/c1nc(C)c(C(=O)NC(CC)CO)s1` (racemic) [Example 104, Rac-2-[(E)-2-(3-Butyl-5-methyl-isoxazol-4-yl)-vinyl]-4-methyl-thiazole-5-carboxylic acid (1-hydroxymethyl-propyl)-amide], the Ki under setting [1] stood at 3.1 nM.

On to `Cc1nc(CCc2c(-c3ccccn3)noc2C)sc1C(=O)NC1CCOCC1` [Example 9, 4-Methyl-2-[2-(5-methyl-3-pyridin-2-yl-isoxazol-4-yl)-ethyl]-thiazole-5-carboxylic acid (tetrahydro-pyran-4-yl)-amide], for which, under setting [1], the Ki is 5.7 nM.

In the case of `Cc1nc(CCc2c(-c3ccc(F)cn3)noc2C)sc1C(=O)N1CCSCC1` [Example 37, (2-{2-[3-(5-Fluoro-pyridin-2-yl)-5-methyl-isoxazol-4-yl]-ethyl}-4-methyl-thiazol-5-yl)-thiomorpholin-4-yl-methanone], under setting [1], the Ki was 55.9 nM.

Regarding `Cc1onc(-c2ccccc2)c1COc1ncc(C(=O)NC(C)C)s1` [Example 127, 2-(5-Methyl-3-phenyl-isoxazol-4-ylmethoxy)-thiazole-5-carboxylic acid isoprop-ylamide], the Ki under setting [1] is 2.2 nM.

For `CCCCc1noc(C)c1/C=C/c1nc(C)c(C(=O)N2CCOCC2)s1` [Example 120, {2-[(E)-2-(3-Butyl-5-methyl-isoxazol-4-yl)-vinyl]-4-methyl-thiazol-5-yl}-morpholin-4-yl-methanone], the Ki under setting [1] is 57.8 nM.

Regarding `Cc1onc(-c2ccccc2)c1/C=C/c1ncc(C(=O)NC(C)CO)s1` (stereo not shown) [Example 66, 2-[(E)-2-(5-Methyl-3-phenyl-isoxazol-4-yl)-vinyl]-thiazole-5-carboxylic acid (2-hydroxy-1-methyl-ethyl)-amide], the Ki under setting [1] turned out to be 1.8 nM.

With `CCCCc1noc(C)c1CCc1nc(C)c(C(=O)NC(C)CO)s1` (stereo not shown) [Example 50, 2-[2-(3-Butyl-5-methyl-isoxazol-4-yl)-ethyl]-4-methyl-thiazole-5-carboxylic acid (2-hydroxy-1-methyl-ethyl)-amide], under setting [1], the Ki is 16.8 nM.

Molecule `Cc1onc(-c2ccc(F)cn2)c1/C=C/c1ncc(C(=O)NCC(F)(F)F)s1` [Example 84, 2-{(E)-2-[3-(5-Fluoro-pyridin-2-yl)-5-methyl-isoxazol-4-yl]-vinyl}-thiazole-5-carboxylic acid (2,2,2-trifluoro-ethyl)-amide] yielded a Ki of 4.1 nM.

Regarding `CCOC(=O)c1cnc(OCc2c(-c3ccccc3)noc2C)s1` [Example 126, 2-(5-Methyl-3-phenyl-isoxazol-4-ylmethoxy)-thiazole-5-carboxylic acid ethyl ester], the Ki under setting [1] was 16.8 nM.

In the case of `CNC(=O)c1cnc(CCc2c(-c3ccc(F)cn3)noc2C)s1` [Example 47, 2-{2-[3-(5-Fluoro-pyridin-2-yl)-5-methyl-isoxazol-4-yl]-ethyl}-thiazole-5-carboxylic acid methylamide], under setting [1], the Ki was found to be 26.3 nM.

`CCNC(=O)c1sc(CCc2c(-c3ccc(F)cn3)noc2C)nc1C` [Example 38, 2-{2-[3-(5-Fluoro-pyridin-2-yl)-5-methyl-isoxazol-4-yl]-ethyl}-4-methyl-thiazole-5-carboxylic acid ethylamide]: the Ki under setting [1] came out at 10.8 nM.

Take `Cc1onc(-c2ccc(F)cn2)c1/C=C/c1ncc(C(N)=O)s1` [Example 81, 2-{(E)-2-[3-(5-Fluoro-pyridin-2-yl)-5-methyl-isoxazol-4-yl]-vinyl}-thiazole-5-carboxylic acid amide]: under setting [1], the Ki was found to be 5.5 nM.

As to `CCCCc1noc(C)c1/C=C/c1nc(C)c(C(=O)NC(CO)CO)s1` [Example 98, 2-[(E)-2-(3-Butyl-5-methyl-isoxazol-4-yl)-vinyl]-4-methyl-thiazole-5-carboxylic acid (2-hydroxy-1-hydroxymethyl-ethyl)-amide], the Ki under setting [1] is 1.9 nM.

For the molecule `COC(=O)c1sc(CCc2c(-c3ccccn3)noc2C)nc1C` [Example 8, 4-Methyl-2-[2-(5-methyl-3-pyridin-2-yl-isoxazol-4-yl)-ethyl]-thiazole-5-carboxylic acid methyl ester], the Ki under setting [1] is 20.3 nM.

`CCCCc1noc(C)c1/C=C/c1nc(C)c(C(=O)N2CC(F)(F)C2)s1` [Example 108, {2-[(E)-2-(3-Butyl-5-methyl-isoxazol-4-yl)-vinyl]-4-methyl-thiazol-5-yl}-(3,3-difluoro-azetidin-1-yl)-methanone]: the Ki under setting [1] turned out to be 24.5 nM.

In the case of `Cc1nc(CCc2c(-c3ccccc3)noc2C)sc1C(=O)NC1CCOC1` (stereo in doubt) [Example 2, (S)-4-Methyl-2-[2-(5-methyl-3-phenyl-isoxazol-4-yl)-ethyl]-thiazole-5-carboxylic acid (tetrahydro-furan-3-yl)-amide], the Ki under setting [1] turned out to be 10.9 nM.

With `CCCCc1noc(C)c1/C=C/c1nc(C)c(C(=O)N[C@@H](CC)CO)s1` [Example 106, 2-[(E)-2-(3-Butyl-5-methyl-isoxazol-4-yl)-vinyl]-4-methyl-thiazole-5-carboxylic acid ((S)-1-hydroxymethyl-propyl)-amide], the Ki under setting [1] was 2.1 nM.

For `CCCCc1noc(C)c1/C=C/c1nc(C)c(C(=O)NC2CCOC2)s1` (stereo not shown) [Example 94, 2-[(E)-2-(3-Butyl-5-methyl-isoxazol-4-yl)-vinyl]-4-methyl-thiazole-5-carboxylic acid (tetrahydro-furan-3-yl)-amide], the Ki under setting [1] came out at 1.2 nM.

As to `CCCCc1noc(C)c1CCc1ncc(C(=O)N[C@@H](C)CO)s1` [Example 61, 2-[2-(3-Butyl-5-methyl-isoxazol-4-yl)-ethyl]-thiazole-5-carboxylic acid ((S)-2-hydroxy-1-methyl-ethyl)-amide], the Ki under setting [1] worked out at 43.6 nM.

Regarding `Cc1onc(-c2ccccc2)c1COc1ncc(C(=O)NC(C)(C)CO)s1` [Example 131, 2-(5-Methyl-3-phenyl-isoxazol-4-ylmethoxy)-thiazole-5-carboxylic acid (2-hydroxy-1,1-dimethyl-ethyl)-amide], the Ki under setting [1] was determined as 12.7 nM.

With `CCCCc1noc(C)c1/C=C/c1nc(C)c(C(=O)NCC)s1` [Example 121, 2-[(E)-2-(3-Butyl-5-methyl-isoxazol-4-yl)-vinyl]-4-methyl-thiazole-5-carboxylic acid ethylamide], the Ki under setting [1] amounted to 5 nM.

Consider `Cc1nc(/C=C/c2conc2-c2ccc(F)cn2)sc1C(=O)NC1CC1` [Example 91, 2-{(E)-2-[3-(5-Fluoro-pyridin-2-yl)-isoxazol-4-yl]vinyl}-4-methyl-thiazole-5-carboxylic acid cyclopropylamide], for which the Ki under setting [1] stood at 35.3 nM.

Take `CCNC(=O)c1sc(CCc2c(-c3ccccn3)noc2C)nc1C` [Example 15, 4-Methyl-2-[2-(5-methyl-3-pyridin-2-yl-isoxazol-4-yl)-ethyl]-thiazole-5-carboxylic acid ethylamide]: the Ki under setting [1] turned out to be 12 nM.

As to `CCNC(=O)c1cnc(CCc2c(-c3ccc(F)cn3)noc2C)s1` [Example 46, 2-{2-[3-(5-Fluoro-pyridin-2-yl)-5-methyl-isoxazol-4-yl]-ethyl}-thiazole-5-carboxylic acid ethylamide], under setting [1], the Ki was 18.1 nM.

`Cc1onc(-c2ccc(F)cn2)c1CCc1ncc(C(=O)NC(C)C)s1` [Example 41, 2-{2-[3-(5-Fluoro-pyridin-2-yl)-5-methyl-isoxazol-4-yl]-ethyl}-thiazole-5-carboxylic acid isopropylamide]: the Ki under setting [1] came out at 10.8 nM.
